For one assay, the target named is T1, recombinant human FAK1 (Homo sapiens, UniProt Q05397).
T1 construct: fused on or other part: N-terminal 6xHis tag
Description: FAK1 HTRF assay. The assay is classed as biochemical. The method in brief: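 His-tagged human FAK1 (residues 692–end, Sf9-expressed), 10 nM final, with 0.5 μM biotinylated gastrin-precursor Tyr87 peptide and a 10 μM final reagent in pH 7.4 buffer, 45 min at rt. Detection used Eu anti-pTyr antibody plus SA-APC (665/620 nm). Compounds top concentration 10 μM; IC50 from % inhibition.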

In the next assay the target is T2, AURKB (Aurora B) enzyme (Homo sapiens, UniProt Q96GD4).
T2 construct: purchased Invitrogen PVR 130
Briefly: Aurora B HTRF assay. The assay is classed as biochemical. Conditions: read-out: AuroraB IC50. The method, boiled down:
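HTRF kinase assay with 5 nM Aurora B and 50 nM ULight-PLK (Ser137) peptide, with a reagent at 30 μM final; 1 h at rt. Reaction stopped with EDTA, and phospho-peptide detected with 2 nM Eu-anti-P-PLK(Ser137) antibody after 1 h at rt, read as HTRF.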
In general terms: Time-resolved FRET reads energy transfer from a long-lived donor to a nearby acceptor.

Another assay addresses JAK2 (Homo sapiens, UniProt O60674). Briefly: JAK2 biochemical potency. Conditions: read-out: JAK2 HTRF IC50.
The next assay has as its target T3, Recombinant Src enzyme (Homo sapiens, UniProt P12931).
T3 construct: purchased Millipore 14-326; host or cells: Sf21 insect cells
Briefly: Src HTRF assay. The assay is classed as biochemical. The method in brief: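 Sf21-expressed recombinant Src at 5 nM final with biotinylated N-terminally tagged Tyk2 peptide substrate at 0.5 μM final; a component freshly made in enzyme assay buffer pH7.4 was used at 10 μM final. Buffer, supplements, compound handling and procedure as in the FAK HTRF assay; dasatinib included.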

Assay [1] addresses T4, FAK phosphorylated at Y397 in HEK-FAK cell line overexpressing human FL FAK protein (Homo sapiens, UniProt Q05397).
T4 construct: expressed in transfected cells
Briefly: Cell based assay, Phospho-FAK ELISA. The settings on record: HEK stb; read-out: pFAK EC50 (μM) HEK stb. The method in brief: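 Stable HEK293 line overexpressing full-length human FAK, kept under 0.8 mg/mL Zeocin. In lysates, FAK Y397 autophosphorylation was measured by sandwich ELISA: total-FAK capture antibody, biotinylated pY397-specific detection antibody, streptavidin-HRP with TMB substrate.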
(In an ELISA, binding on a coated surface is turned into a signal by an enzyme label.)

In general, IC50 refers to the concentration needed to halve the response being measured. As usually defined, the EC50 is the concentration needed to bring the measured effect to its halfway point.

T3 sequence (P12931 whole entry): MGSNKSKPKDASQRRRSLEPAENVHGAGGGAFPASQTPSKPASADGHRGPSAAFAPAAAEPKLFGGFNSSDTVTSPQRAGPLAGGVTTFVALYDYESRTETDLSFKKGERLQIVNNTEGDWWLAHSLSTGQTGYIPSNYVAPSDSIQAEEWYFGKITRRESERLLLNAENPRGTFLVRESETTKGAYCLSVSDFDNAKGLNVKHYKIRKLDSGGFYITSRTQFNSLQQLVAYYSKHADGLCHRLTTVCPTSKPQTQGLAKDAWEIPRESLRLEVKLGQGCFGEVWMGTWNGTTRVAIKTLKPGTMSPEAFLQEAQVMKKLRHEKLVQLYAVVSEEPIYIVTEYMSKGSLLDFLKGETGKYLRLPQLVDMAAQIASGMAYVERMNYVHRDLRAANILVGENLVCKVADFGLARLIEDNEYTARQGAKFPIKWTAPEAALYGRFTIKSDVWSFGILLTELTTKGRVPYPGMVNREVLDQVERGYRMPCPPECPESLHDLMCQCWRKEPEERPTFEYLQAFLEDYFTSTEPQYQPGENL
T1 sequence (Q05397 422-680 limits assumed): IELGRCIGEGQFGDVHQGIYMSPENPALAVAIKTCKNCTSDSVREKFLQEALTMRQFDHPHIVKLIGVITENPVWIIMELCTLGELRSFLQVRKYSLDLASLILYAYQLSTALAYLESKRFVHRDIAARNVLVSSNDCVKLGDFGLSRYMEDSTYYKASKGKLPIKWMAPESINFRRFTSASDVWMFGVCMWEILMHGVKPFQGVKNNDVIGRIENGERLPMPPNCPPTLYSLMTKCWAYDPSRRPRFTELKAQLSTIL
Chain of JAK2 (O60674 whole entry, species assumed): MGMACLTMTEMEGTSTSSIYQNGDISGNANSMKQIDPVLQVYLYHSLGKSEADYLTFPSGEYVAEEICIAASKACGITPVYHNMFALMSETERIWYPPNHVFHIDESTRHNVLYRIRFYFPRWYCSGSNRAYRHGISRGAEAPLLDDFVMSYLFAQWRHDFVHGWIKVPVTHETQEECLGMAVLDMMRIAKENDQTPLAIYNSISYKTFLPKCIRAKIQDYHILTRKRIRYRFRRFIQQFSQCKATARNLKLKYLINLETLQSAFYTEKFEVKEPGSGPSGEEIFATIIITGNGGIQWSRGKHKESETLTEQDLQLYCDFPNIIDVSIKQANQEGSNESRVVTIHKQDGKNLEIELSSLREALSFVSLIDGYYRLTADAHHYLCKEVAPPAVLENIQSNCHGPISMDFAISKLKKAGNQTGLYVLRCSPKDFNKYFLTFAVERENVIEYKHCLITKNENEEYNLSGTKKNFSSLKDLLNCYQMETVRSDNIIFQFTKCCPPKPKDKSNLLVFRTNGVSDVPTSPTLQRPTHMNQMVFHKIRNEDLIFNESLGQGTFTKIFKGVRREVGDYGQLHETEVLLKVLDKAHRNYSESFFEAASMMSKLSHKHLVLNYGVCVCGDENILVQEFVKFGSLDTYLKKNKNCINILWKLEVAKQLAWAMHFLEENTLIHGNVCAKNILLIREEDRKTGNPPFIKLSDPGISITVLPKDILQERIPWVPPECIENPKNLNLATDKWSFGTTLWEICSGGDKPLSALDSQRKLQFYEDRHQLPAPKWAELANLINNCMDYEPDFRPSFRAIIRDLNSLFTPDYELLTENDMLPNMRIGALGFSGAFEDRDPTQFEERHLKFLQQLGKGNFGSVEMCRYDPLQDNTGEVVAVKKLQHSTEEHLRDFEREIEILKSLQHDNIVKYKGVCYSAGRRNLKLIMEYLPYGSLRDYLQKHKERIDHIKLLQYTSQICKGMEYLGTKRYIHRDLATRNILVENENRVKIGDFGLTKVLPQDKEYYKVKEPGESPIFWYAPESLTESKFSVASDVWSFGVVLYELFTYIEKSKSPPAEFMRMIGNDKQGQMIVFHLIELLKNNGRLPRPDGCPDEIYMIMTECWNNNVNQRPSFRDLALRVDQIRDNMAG
T2 sequence (Q96GD4 whole entry): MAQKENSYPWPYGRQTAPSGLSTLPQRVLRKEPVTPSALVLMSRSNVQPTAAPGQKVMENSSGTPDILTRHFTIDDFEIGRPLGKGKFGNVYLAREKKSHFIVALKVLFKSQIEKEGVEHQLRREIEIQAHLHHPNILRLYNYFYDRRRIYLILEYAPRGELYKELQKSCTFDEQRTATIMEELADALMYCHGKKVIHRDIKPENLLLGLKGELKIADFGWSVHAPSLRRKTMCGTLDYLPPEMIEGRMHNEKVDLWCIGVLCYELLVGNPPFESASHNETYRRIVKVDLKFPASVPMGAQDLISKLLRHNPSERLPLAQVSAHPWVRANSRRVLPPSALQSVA
T4 sequence (Q05397 whole entry): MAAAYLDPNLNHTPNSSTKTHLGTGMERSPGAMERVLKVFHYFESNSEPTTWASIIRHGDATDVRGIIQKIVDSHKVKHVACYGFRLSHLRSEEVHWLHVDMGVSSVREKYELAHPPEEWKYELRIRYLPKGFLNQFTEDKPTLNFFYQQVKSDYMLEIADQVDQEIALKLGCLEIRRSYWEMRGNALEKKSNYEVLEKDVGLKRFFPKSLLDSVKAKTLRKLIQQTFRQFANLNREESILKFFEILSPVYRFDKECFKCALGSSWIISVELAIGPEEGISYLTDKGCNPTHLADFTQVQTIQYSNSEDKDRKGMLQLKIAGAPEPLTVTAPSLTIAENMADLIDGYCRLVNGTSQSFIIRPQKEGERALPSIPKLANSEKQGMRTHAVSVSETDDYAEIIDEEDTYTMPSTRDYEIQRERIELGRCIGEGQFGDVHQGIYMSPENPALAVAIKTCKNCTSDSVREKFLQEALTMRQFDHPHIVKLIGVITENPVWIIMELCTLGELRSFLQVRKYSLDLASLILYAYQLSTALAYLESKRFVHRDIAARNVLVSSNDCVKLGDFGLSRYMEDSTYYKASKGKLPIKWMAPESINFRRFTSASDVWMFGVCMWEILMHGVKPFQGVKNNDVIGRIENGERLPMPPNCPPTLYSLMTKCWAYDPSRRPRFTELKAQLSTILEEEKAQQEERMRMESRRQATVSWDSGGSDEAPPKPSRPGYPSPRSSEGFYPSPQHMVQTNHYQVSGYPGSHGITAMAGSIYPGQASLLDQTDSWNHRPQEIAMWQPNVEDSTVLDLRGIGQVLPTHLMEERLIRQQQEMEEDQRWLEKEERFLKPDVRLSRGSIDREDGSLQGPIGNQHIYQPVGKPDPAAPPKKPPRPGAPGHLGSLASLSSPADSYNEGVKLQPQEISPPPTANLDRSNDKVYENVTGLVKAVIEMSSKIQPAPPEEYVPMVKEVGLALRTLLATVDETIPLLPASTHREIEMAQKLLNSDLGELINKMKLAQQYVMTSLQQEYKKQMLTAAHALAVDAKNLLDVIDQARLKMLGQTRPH

Regarding `N#Cc1ccccc1S(=O)(=O)n1ccc2cnc(Nc3ccc(N4CCNCC4)cc3)cc21` [Example 314], the IC50 on recombinant human FAK1, at AURKB (Aurora B) enzyme and at JAK2 was less than 20 nM each time.
Take `CN(c1ccccc1Cn1ccc2cnc(Nc3ccc4c(c3)CCC(=O)N4)nc21)S(C)(=O)=O` [Example 103]: the half-inhibitory concentration (IC50) on recombinant human FAK1 and on JAK2 was less than 20 nM each time.
In the case of `CN(c1ncccc1Cn1ccc2cnc(Nc3ccc4ncsc4c3)nc21)S(C)(=O)=O` [Example 123], the IC50 at AURKB (Aurora B) enzyme and at JAK2 was less than 20 nM each time.
Turning to `CN(C)Cc1ccc(Nc2ncc3ccn(S(=O)(=O)c4cccc5cccnc45)c3n2)cc1` [Example 205], the IC50 at recombinant human FAK1, at AURKB (Aurora B) enzyme and at JAK2 was less than 20 nM each time.
For the molecule `C[C@@H]1CN(c2ccc(Nc3ncc4ccn(Cc5ccccc5N(C)S(C)(=O)=O)c4n3)cc2)CCN1` [Example 448, (R)—N-methyl-N-(2-((2-((4-(3-methylpiperazin-1-yl)phenyl)amino)-7H-pyrrolo[2,3-d]pyrimidin-7-yl)methyl)phenyl)methanesulfonamide], the IC50 on recombinant human FAK1, at AURKB (Aurora B) enzyme and at JAK2 was less than 20 nM each time.
Consider `O=S(=O)(c1cccc2cccnc12)n1ncc2cnc(Nc3ccc(N4CCNCC4)cc3)cc21` [Example 210], for which the IC50 is less than 20 nM on AURKB (Aurora B) enzyme and greater than 1000 nM at JAK2.
As to `CC(=O)Nc1cccc(Nc2ncc3ccn(Cc4ccccc4N(C)S(C)(=O)=O)c3n2)c1` [Example 100], the IC50 at recombinant human FAK1 and on JAK2 was less than 20 nM each time.
As for `COc1cc(Nc2cc3c(ccn3S(=O)(=O)c3ccccc3C#N)cn2)ccc1N1CCNCC1` [Example 391], the IC50 on recombinant human FAK1 is less than 20 nM; on AURKB (Aurora B) enzyme it was less than 20 nM; on JAK2 it was greater than 1000 nM.
`O=S(=O)(c1cccc2cccnc12)n1ccc2cnc(Nc3ccc(N4CC5CC4CN5)cc3)nc21` (stereo not drawn) [Example 246]: the IC50 on recombinant human FAK1, at AURKB (Aurora B) enzyme and at JAK2 was less than 20 nM each time.
For the molecule `C[C@@H]1CN(c2ccc(Nc3ncc4ccn(Cc5cccnc5N(C)S(C)(=O)=O)c4n3)cc2)CCN1` [Example 475], the half-maximal inhibitory concentration (IC50) at AURKB (Aurora B) enzyme and at JAK2 was less than 20 nM in each case.
For the molecule `COc1ccccc1S(=O)(=O)n1ccc2cnc(Nc3ccc4c(c3)CCC(=O)N4)nc21` [Example 106], the IC50 on recombinant human FAK1, at AURKB (Aurora B) enzyme and at JAK2 was less than 20 nM throughout.
Consider `CN(C)c1ccc(Nc2ncc3ccn(Cc4cccnc4N(C)S(C)(=O)=O)c3n2)cc1` [Example 105], for which the IC50 on AURKB (Aurora B) enzyme and on JAK2 was less than 20 nM in each case.
Consider `O=S(=O)(c1ccccc1OC(F)F)n1ccc2cnc(Nc3ccc(N4CCNCC4)cc3)nc21` [Example 184], for which the IC50 at recombinant human FAK1, on AURKB (Aurora B) enzyme and at JAK2 was less than 20 nM each time.
Turning to `CC1(C)CN(c2ccccn2)c2nc(Nc3ccc4c(c3)CC(=O)N4)ncc21` [Example 740], the IC50 on Recombinant Src enzyme and at AURKB (Aurora B) enzyme was greater than 1000 nM each time. For the same molecule, the EC50 in assay [1] is greater than 1 µM.
In the case of `CN1CCN(c2ccc(Nc3ncc4ccn(Cc5cccnc5N(C)S(C)(=O)=O)c4n3)cc2)CC1` [Example 101], the IC50 on JAK2 is less than 20 nM.
Regarding `COc1ccccc1S(=O)(=O)n1ccc2cnc(Nc3ccc(N4CCNCC4)cc3)nc21` [Example 333], the IC50 on recombinant human FAK1, at AURKB (Aurora B) enzyme and at JAK2 was less than 20 nM each time.
For `C[C@@H]1CN(c2ccc(Nc3ncc4ccn(Cc5ccccc5NS(C)(=O)=O)c4n3)cc2)CCN1` [Example 547], the 50% inhibitory concentration (IC50) on Recombinant Src enzyme and on AURKB (Aurora B) enzyme was less than 20 nM each time. Also, in assay [1], the EC50 was greater than 1 µM.
With `CN(C)C1CCN(c2ccc(Nc3ncc4c(n3)N(S(=O)(=O)c3cccc5cccnc35)CC4(C)C)cc2)CC1` [Example 500], the IC50 at recombinant human FAK1 is less than 20 nM; on JAK2, greater than 1000 nM.
`N#Cc1ccccc1S(=O)(=O)n1ccc2cnc(Nc3ccc(N4CCNCC4)c(F)c3)nc21` [Example 245]: the IC50 on Recombinant Src enzyme and at AURKB (Aurora B) enzyme was less than 20 nM throughout. The EC50 in assay [1] was greater than 1 µM.
On to `O=S(=O)(c1cccc2cccnc12)n1ccc2cnc(Nc3ccc(CN4CCNCC4)cc3)nc21` [Example 244], for which the half-maximal inhibitory concentration (IC50) on recombinant human FAK1, at AURKB (Aurora B) enzyme and on JAK2 was less than 20 nM throughout.
With `O=S(=O)(c1cccc2cnccc12)n1ccc2cnc(Nc3ccc(N4CCNCC4)cc3)nc21` [Example 235], the IC50 on AURKB (Aurora B) enzyme and on JAK2 was less than 20 nM throughout.
In the case of `CN(c1ncccc1Cn1ccc2cnc(Nc3cccc(N4CCOCC4)c3)nc21)S(C)(=O)=O` [Example 99], the IC50 on JAK2 is less than 20 nM.
`CN(c1ncccc1Cn1ccc2cnc(Nc3ccc(N4CCNCC4)cc3)nc21)S(C)(=O)=O` [Example 116]: the IC50 at AURKB (Aurora B) enzyme and on JAK2 was less than 20 nM each time.
With `C[C@H]1CN(c2ccc(Nc3ncc4ccn(Cc5cccnc5N(C)S(C)(=O)=O)c4n3)cc2)CCN1` [Example 471, N-Methyl-N-(3-{2-[4-((S)-3-methyl-piperazin-1-yl)-phenylamino]-pyrrolo[2,3-d]pyrimidin-7-ylmethyl}-pyridin-2-yl)-methanesulfonamide], the 50% inhibitory concentration (IC50) on JAK2 was less than 20 nM.
On to `COc1ccccc1S(=O)(=O)n1ncc2cnc(Nc3ccc(N4CCNCC4)cc3)cc21` [Example 342], for which the half-maximal inhibitory concentration (IC50) is greater than 1000 nM at Recombinant Src enzyme and less than 20 nM on AURKB (Aurora B) enzyme. Also, the EC50 in assay [1] is greater than 1 µM.
As for `CN(c1ncccc1Cn1ccc2cnc(Nc3cccc(S(N)(=O)=O)c3)nc21)S(C)(=O)=O` [Example 165], the half-inhibitory concentration (IC50) on AURKB (Aurora B) enzyme and at JAK2 was less than 20 nM throughout.
Regarding `C[C@H]1CNCCN1c1ccc(Nc2ncc3ccn(Cc4ccccc4N(C)S(C)(=O)=O)c3n2)cc1` [Example 481], the half-inhibitory concentration (IC50) at AURKB (Aurora B) enzyme and at JAK2 was less than 20 nM each time.
For the molecule `CN(C)CCOc1cccc(Nc2ncc3ccn(Cc4cccnc4N(C)S(C)(=O)=O)c3n2)c1` [Example 91], the IC50 on AURKB (Aurora B) enzyme and at JAK2 was less than 20 nM throughout.
As for `Cc1ccnc2c(S(=O)(=O)n3ccc4cnc(Nc5ccc(N6CCNCC6)cc5)nc43)cccc12` [Example 398], the IC50 is greater than 1000 nM on Recombinant Src enzyme and less than 20 nM at AURKB (Aurora B) enzyme. The EC50 in assay [1] was greater than 1 µM.
For `CN(c1ncccc1Cn1ccc2cnc(Nc3ccc4[nH]cc(C5=CCNCC5)c4c3)nc21)S(C)(=O)=O` [Example 152], the IC50 on recombinant human FAK1 was less than 20 nM; on Recombinant Src enzyme, greater than 1000 nM. Besides, the EC50 in assay [1] is greater than 1 µM.
Take `COCCN1CCN(c2ccc(Nc3cc4c(ccn4S(=O)(=O)c4cccc5cccnc45)cn3)c(OC)c2)CC1` [Example 444]: the IC50 is less than 20 nM at recombinant human FAK1 and greater than 1000 nM on Recombinant Src enzyme. Further, the EC50 in assay [1] was less than 0.02 µM.
With `CC(=O)Nc1ccc(Nc2ncc3ccn(Cc4ccccc4OC(F)F)c3n2)cc1` [Example 95], the 50% inhibitory concentration (IC50) at JAK2 was less than 20 nM.
For the molecule `Cc1ccc2cccc(S(=O)(=O)n3ccc4cnc(Nc5ccc(N6CCNCC6)cc5)cc43)c2n1` [Example 369], the IC50 is greater than 1000 nM at Recombinant Src enzyme and less than 20 nM at AURKB (Aurora B) enzyme. For the same molecule, the EC50 in assay [1] is greater than 1 µM.
On to `CC(=O)Nc1ccc(Nc2ncc3ccn(Cc4cccnc4N(C)S(C)(=O)=O)c3n2)cc1` [Example 35], for which the IC50 on AURKB (Aurora B) enzyme and on JAK2 was less than 20 nM in each case.
In the case of `O=S(=O)(c1ccccc1Cl)n1ccc2cnc(Nc3ccc(N4CCNCC4)cc3)nc21` [Example 232], the IC50 on Recombinant Src enzyme and at AURKB (Aurora B) enzyme was less than 20 nM each time. In assay [1], the EC50 was greater than 1 µM.
